Assay [1] deals with Human Platelet Aggregation. Put plainly: Inhibition of Human Platelet Aggregation. It is filed as cell-based. The conditions noted are these: in vitro. Here is the method:
The ability of test compounds to inhibit platelet aggregation was determined by a modification of the turbidometric technique of Born (Nature, 194:927 [1962]). Blood was collected from human volunteers who had not ingested aspirin or aspirin-containing products within the preceding two weeks in heparinized containers and was allowed to settle for one (1) hour. The platelet rich plasma (prp) supernates were collected and cooled. Siliconized glassware was used throughout.
In a representative assay 1.9 ml of PRP and 0.2 ml of test compound at the appropriate concentrations (0.001 to 100 mcgm), or 0.2 ml of distilled water (control procedure) were placed in sample cuvettes. The cuvettes were placed in a 37° C incubation block for 15 minutes, and then in a spectrophotometer linked to a strip chart recorder. After 30-60 seconds, 0.2 ml of a solution, prepared by diluting a calf-skin collagen solution 1:9 with Tyrodes' Solution, was added to each cuvette. Platelet aggregation was evidenced by a decrease in optical density.
An ED50 value was then determined graphically.

The test system of the next assay is Gastric Secretion. Put plainly: Effects on Gastric Secretion in the Rat. It is filed as in vivo. Conditions: pylorus-ligated rat, subcutaneous, 2 x 1.5 mg/kg (total 3.0 mg/kg), 4 hours. In outline:
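Rats (150-200 g, groups of six) fasted 48 h, pylorus ligated under ether. Compounds given s.c. in phosphate buffer pH 7.38 at 1.5 mg/kg immediately post-surgery and 2 h later (total 3.0 mg/kg). At 4 h, gastric volume and total acid (titration with 0.1 N NaOH, mEq) compared with vehicle controls by t-test.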

The next assay relates to Femoral Blood Flow. As to the kind of experiment: Effects on Femoral Blood Flow in the Dog. It is filed as in vivo. The conditions noted are these: anesthetized mongrel dog, intraarterial, 0.001 to 10 mcg. Here is the method: The peripheral vasodilator or constrictor effects of these compounds were determined in mongrel dogs of either sex, weighing between 10 and 20 kg anesthestized intravenously with 35 mg/kg of sodium pentobarbital. An external iliac artery was dissected immediately above the femoral arch for a length of approximately 5 cm and a previously calibrated, non-connulating electromagnetic flowmeter sensor with a lumen between 2.5 and 3.5 mm was placed snugly around the vessel. Cannulas were placed in a branch of the artery arising distally to the location of the flowmeter sensor for intraarterial drug administrations, in the contralateral femoral artery for systemic blood pressure recordings and in the trachea for artificial respiration with room air. Femoral blood flow and systemic blood pressure were continously recorded with an electromagnetic flowmeter and pressure tranducer, respectively.
After an adequate control period, test compounds were injected intraarterially at one log-spaced doses ranging from 0.001 to 10 mcg., in a volume of 0.5 ml and at 5 to 10 minute intervals. Maximum changes in bloodflow, as well as any variations in blood pressure, were tabulated for each dose in absolute values (ml/min. and mmHg). The calculations were made taking as control values those existing immediately before administration of each dose. The direction of the observed change (plus for increase and minus for decrease) was also noted. The dose changing bloodflow by 100 ml/min (ED100 ml/min) was calculated graphically and was used for scoring activity as follows: […]

A further assay concerns rat stomach fundus. As to the kind of experiment: Cascade Assay, stomach (smooth muscle stimulant effect). The conditions noted are these: superfused, 50% of maximum (PGE1). The format is cell-based. The method in brief: (§1)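 Rabbit aortic strip (4 g tension), rat stomach fundus, rat colon and chick rectum (1 g) in cascade, superfused at 10 ml/min with 37° C Krebs containing cholinergic, adrenergic, serotonin and histamine blockers. Doses of 0.001–100,000 ng dripped on at 10–20 min intervals; maximal tension rise gave graphical ED50 per tissue.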

The test system of the next assay is rat colon. As to the kind of experiment: Cascade Assay, colon (smooth muscle stimulant effect). It is filed as cell-based. Conditions: superfused, 50% of maximum (PGF2α). The method in brief: as §1
A further assay concerns chick rectum. As to the kind of experiment: Cascade Assay, rectum (smooth muscle stimulant effect). The format is cell-based. Conditions: superfused, 50% of maximum (PGE1). The method in brief: as §1

Structures are written as SMILES.

In the case of `COC(=O)CCCCCC[C@H]1C(=O)C[C@@H](O)[C@@H]1/C=C/[C@H](O)C1CC2(CCC2)C1` [TR-4120, Methyl 7-{3R-hydroxy-5-oxo-2R-[3R-hydroxy-3-(spiro[3.3]hept-2-yl)-1E-propenyl]cyclopent-1R-yl}heptanoate], the “inhibition of aggregation of human platelets, in words” value in assay [1] is given as “inhibit aggregation of platelets”. Further, the “Test B Activity Value (% decrease in acidity, inhibition of gastric secretion)” value in the assay with Gastric Secretion is on record as 2 (26-50, significant). Also, the “Test C Activity Value (ED100 ml/min, increase in femoral blood flow)” value with Femoral Blood Flow was 0 (>10.0). Moreover, the “Test E Cascade Assay, Stomach, Activity Value (ED50)” value with rat stomach fundus is 0 (>10000). Moreover, the “Test E Cascade Assay, Colon, Activity Value (ED50)” value in the assay on rat colon is on record as 0 (>10000). Besides, the “Test E Cascade Assay, Rectum, Activity Value (ED50)” value in the assay with chick rectum is recorded as 1 (1001 - 10000).

Values taken from patent publication US4098823A, “Monospiroalkyl derivatives of prostaglandins” (Miles Laboratories, Inc., priority 1977, dated 1978).
